Measurements taken from patent US7629502B2, “Non-antibiotic selection marker genes” (Academia Sinica, priority 2006, dated 2009).
“Also recorded” adds a separate entry of the source.

Experiments:
Format in all cases: in vivo, Arabidopsis thaliana
[1] = test system: AtTSB1 transgenic Arabidopsis (TH); experiment: Seedling survival of AtTSB1 transgenic (TH) Arabidopsis on medium with 5MT or CdCl2; details: for seedling survival rate: TH, 2 weeks, surviving/seeds; for survival / growth of transgenic plants: medium containing 75 μM 5MT or 300 μM CdCl2
Description: (§1) Arabidopsis thaliana (L.) Hyen. ecotype Columbia was grown in controlled environment chambers at 24° C., 70% relative humidity, with 24 h photoperiod (about 120 μmol m^−2s^−1). To transform Arabidopsis plants, we used the floral dip method described previously (Clough and Bent, 1998). To transgenic plants constitutively expressing AtTSB1, were selected on MS medium with 20 ppm hygromycin (Murashige and Skoog 1962). The sensitivity of wild type and transgenic T2 homozygous seeds (T3 generation) to different concentrations of 5MT and CdCl2 were assessed on the basis of the germination percentage of seedlings at the end of 2 weeks. After standardizing the optimal selection concentration of 5MT and CdCl2, the floral dip transformation was again performed to evaluate the selection efficiency between TSB1 and conventional hydromycin selection systems.
(§2) Different concentrations of 5MT (0, 25, 50, 75, 100 and 200 μM) and CdCl2 (0, 50, 100, 200, 300, 400 and 500 μM) were evaluated in order to select the transformants constitutively expressing AtTSB1 gene and in these experiments untransformed wild-types used as negative control. Sixty seeds of each wild-type and transgenic seeds were germinated on medium containing various concentrations of 5MT for 2 weeks, and the number of surviving plants recorded (Table 1). Under all the tested conditions, both wild-type and transgenic seeds could germinate almost equally. […] In the meantime, all seedlings on medium containing less than 50 μM 5MT survived selection even after 2 weeks. Thus, 75 μM 5MT is the optimum concentration for the selection of putative transformants.
(§3) A total of one hundred seeds each of wild-type and transgenic plants were germinated on medium containing different concentrations of CdCl2, for 2 weeks, and the survival was recorded (Table 2). The germination rate in wild-type and transgenic seedlings was almost equal on the medium containing CdCl2 concentrations up to 300 μM. […] All the wild-type and transgenic seedlings survived even after 2 weeks on medium containing CdCl2 less than 100 μM. From these observations, we concluded that 300 μM CdCl2 is the optimal concentration needed for selecting putative transformants.

[2] = test system: wild-type Arabidopsis; experiment: Seedling survival of wild-type Arabidopsis on medium with 5MT or CdCl2; details: for seedling survival rate: WT, surviving/seeds; for survival of wild type / non-transformed plants: medium containing 75 μM 5MT or 300 μM CdCl2; for optimum concentration for the selection of putative transformants: wild-type versus transgenic seedlings
Description: as §1, §2, §3

[3] = test system: wild-type plants; experiment: Free Trp content analysis (GC-MS), wild-type plants
Description: (§4) Two-week old wild-type and transgenic plants were harvested from germination medium with or without 50 μM 5MT. Endogenous free tryptophan analysis was performed described previously (Edlund et al., 1995) with some modification. Cell extracts were prepared from approximately 50 mg dry weight. Frozen tissues were ground with methanol under continuous shaking for 24 h at 4° C. After centrifuged, the supernatant was filtered by 0.22 μm membrane (Millipore Millexg). The filtered solution was reduced to 1 ml in a Speed Vac concentrator. The final solution was extracted by SEP column (Water Oasis HLB6 cc) and use 1 ml methanol to elute the extracts. Each 100 μl sample was methylated with 160 μl pyridine and 40 μl […]-N-trimethylsilyl-trifuoroacetamide at 70° C. for 1 hr. The GC-MS analysis was performed according to conditions described by Edlund et al (Edlund et al., 1995).
(§5) To elucidate the possible relation between the accumulation of free Trp content and resistance to 5MT and CdCl2, free Trp content was measured in AtTSB1 transgenic plants. […] The level in the transgenic plants TM1, TM3 and TM4 was 10- to 15-fold higher (5,900-8,900 pmole/g dry weight) than in wild-type plants (587 pmole/g dry weight). […] A similar trend was observed when TC3, TC4 and TC5 transgenic plants were measured for Trp content, with or without CdCl2.

[4] = test system: AtTSB1 transgenic Arabidopsis (TH); experiment: Seedling survival of AtTSB1 transgenic (TH) Arabidopsis on medium with 5MT or CdCl2; details: for seedling survival rate: TH, surviving/seeds
[5] = test system: wild-type Arabidopsis; experiment: Seedling survival of wild-type Arabidopsis on medium with 5MT or CdCl2; details: WT, 1 week, surviving/seeds
[6] = test system: AtTSB1 transgenic plants (TM1, TM3, TM4); experiment: Free Trp content analysis (GC-MS), TSB transgenic plants; details: for Endogenous contents of tryptophan: two-week old plants
Description: as §4, §5

Cc1ccc2[nH]cc(C[C@H](N)C(=O)O)c2c1 [5MT, 5-methyl-tryptophan]
seedling survival rate ([1]; 5MT 25 μM): 60/60
seedling survival rate ([1]; 5MT 100 μM): 34/60
survival / growth of transgenic plants [1]: grew and survived
survival rate ([1]; transgenic seedlings, 75 μM 5MT): 100%
growth of wild-type plants ([2]; 75 μM and higher (100 and 200 μM) 5MT, after 2 weeks): turned pale green and ceased to grow
seedling survival rate ([2]; 5MT 25 μM, 1 week): 60/60
seedling survival rate ([2]; 5MT 25 μM, 2 weeks): 24/60
seedling survival rate ([2]; 5MT 50 μM, 1 week): 60/60
seedling survival rate ([2]; 5MT 50 μM, 2 weeks): 10/60
seedling survival rate ([2]; 5MT 75 μM, 2 weeks): 0/60
seedling survival rate ([2]; 5MT 100 μM, 2 weeks): 0/60
seedling survival rate ([2]; 5MT 200 μM, 1 week): 12/60
seedling survival rate ([2]; 5MT 200 μM, 2 weeks): 0/60
survival of wild type / non-transformed plants [2]: did not survive; also recorded: deteriorated
optimum concentration for the selection of putative transformants ([2]; 2 weeks): 75 µM
Endogenous contents of tryptophan ([3]; wild type + 5MT 50 μM, two-week old plants): 125 ± 6 pmole/g g · DW
level of free Trp ([3]; wild-type plants, 5MT in the medium): 125 pmole/g dry weight
reduction of the level of free Trp ([3]; wild-type plants, 5MT in the medium versus without): fivefold
seedling survival rate ([4]; 5MT 50 μM, 1 week): 40/40
seedling survival rate ([4]; 5MT 50 μM, 2 weeks): 60/60
seedling survival rate ([4]; 5MT 75 μM, 1 week): 60/60
seedling survival rate ([4]; 5MT 75 μM, 2 weeks): 60/60
seedling survival rate ([4]; 5MT 100 μM, 1 week): 60/60
seedling survival rate ([4]; 5MT 200 μM, 1 week): 60/60
seedling survival rate ([4]; 5MT 200 μM, 2 weeks): 18/60
resistance of transgenic seedlings ([4]; all concentrations of 5MT tested (100 and 200 μM)): showed resistance
seedling survival rate ([5]; 5MT 75 μM): 60/60
seedling survival rate ([5]; 5MT 100 μM): 25/60
Endogenous contents of tryptophan ([6]; TM1 + 5MT 50 μM): 5,200 ± 14 pmole/g g · DW
Endogenous contents of tryptophan ([6]; TM3 + 5MT 50 μM): 5,100 ± 11 pmole/g g · DW
Endogenous contents of tryptophan ([6]; TM4 + 5MT 50 μM): 7,200 ± 10 pmole/g g · DW
level of free Trp ([6]; transgenic plants TM1, TM3 and TM4, 5MT in the medium): 5,100-7,200 pmole/g dry weight

[Cl][Cd][Cl] [CdCl2]
growth of transgenic plants ([1]; 300 μM CdCl2, after 2 weeks): slightly inhibited
seedling survival rate ([1]; CdCl2 100 μM): 100/100
seedling survival rate ([1]; CdCl2 200 μM): 95/100
seedling survival rate ([1]; CdCl2 300 μM): 98/100
seedling survival rate ([1]; CdCl2 500 μM): 62/100
survival / growth of transgenic plants [1]: grew and survived
seedling survival rate ([2]; CdCl2 50 μM, 1 week): 100/100
seedling survival rate ([2]; CdCl2 50 μM, 2 weeks): 100/100
seedling survival rate ([2]; CdCl2 100 μM, 1 week): 100/100
seedling survival rate ([2]; CdCl2 100 μM, 2 weeks): 100/100
seedling survival rate ([2]; CdCl2 200 μM, 2 weeks): 30/100
seedling survival rate ([2]; CdCl2 300 μM, 2 weeks): 0/100
seedling survival rate ([2]; CdCl2 400 μM, 2 weeks): 0/100
seedling survival rate ([2]; CdCl2 500 μM, 1 week): 8/100
seedling survival rate ([2]; CdCl2 500 μM, 2 weeks): 0/100
survival of wild type / non-transformed plants [2]: did not survive; also recorded: deteriorated
optimum concentration for the selection of putative transformants ([2]; 2 weeks): 300 µM
transgenic seedlings greener than controls ([4]; 300 μM CdCl2, after 2 weeks): 98%
seedling survival rate ([4]; CdCl2 50 μM, 1 week): 100/100
seedling survival rate ([4]; CdCl2 50 μM, 2 weeks): 100/100
seedling survival rate ([4]; CdCl2 100 μM, 1 week): 100/100
seedling survival rate ([4]; CdCl2 200 μM, 1 week): 100/100
seedling survival rate ([4]; CdCl2 300 μM, 1 week): 100/100
seedling survival rate ([4]; CdCl2 400 μM, 1 week): 100/100
seedling survival rate ([4]; CdCl2 400 μM, 2 weeks): 80/100
seedling survival rate ([4]; CdCl2 500 μM, 1 week): 100/100
seedling survival rate ([5]; CdCl2 200 μM): 100/100
seedling survival rate ([5]; CdCl2 300 μM): 80/100
seedling survival rate ([5]; CdCl2 400 μM): 12/100
